Structures can show the parent of a compound that is named as a salt.
Target: RIPK1 (recombinant GST-RIPK1 kinase domain, residues 1-327) (Homo sapiens (Human), UniProt Q13546)
Assay: RIPK1-ADP-Glo Enzymatic Assay
Type: biochemical
Details: ADP-Glo; 25 nM GST-RIPK1, 300 μM ATP; assay lower limit ~25 nM; read-out: RIPK1 V0 Ec50
In short: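 Luminescent ADP-Glo readout of ATP-to-ADP conversion. Conditions: 25 nM enzyme, 300 μM ATP, 3 μM dephospho-MBP, pH 7.3 HEPES buffer with 20 mM MgCl2; 30 min compound pre-incubation, 150 min reaction. EC50 via four-parameter sigmoidal regression; assay floor ~25 nM.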

RIPK1 (recombinant GST-RIPK1 kinase domain, residues 1-327), sequence (Q13546 1-327): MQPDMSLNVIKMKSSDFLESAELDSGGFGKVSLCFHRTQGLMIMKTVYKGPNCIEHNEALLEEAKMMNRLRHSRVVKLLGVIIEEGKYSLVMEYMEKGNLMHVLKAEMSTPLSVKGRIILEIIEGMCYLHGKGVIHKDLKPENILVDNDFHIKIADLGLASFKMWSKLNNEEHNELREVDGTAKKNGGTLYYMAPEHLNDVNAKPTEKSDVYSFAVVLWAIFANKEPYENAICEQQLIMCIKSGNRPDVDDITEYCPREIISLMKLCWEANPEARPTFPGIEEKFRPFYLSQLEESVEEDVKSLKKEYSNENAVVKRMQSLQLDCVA

| EC50 [nM] | Structure (SMILES) |
| --- | --- |
| < 25 | O=C1N2[C@H](OC13CCN(c1ccnc4c(F)cnn14)CC3)[C@@H](F)C[C@H]2c1ccccc1 [Example 9.1, (5′S,7′S,7a′R)-7′-Fluoro-1-(3-fluoropyrazolo[1,5-a]pyrimidin-7-yl)-5′-phenyltetrahydro-3′H-spiro[piperidine-4,2′-pyrrolo[2,1-b]oxazol]-3′-one] |
| < 25 | NC(=O)c1ccc(N2CCC3(CC2)O[C@@H]2CC[C@@H](c4cccc(F)c4)N2C3=O)n2ncnc12 [Example 4.152, 5-[(5′S,7a′R)-5′-(3-fluorophenyl)-3′-oxotetrahydro-1H,3′H-spiro[piperidine-4,2′-pyrrolo[2,1-b] [1,3]oxazol]-1-yl][1,2,4]triazolo[1,5-a] pyridine-8-carboxamide] |
| 25.3 | N#Cc1ccc(N2CC3(C2)O[C@@H]2CC[C@@H](c4ccccc4)N2C3=O)c2ccnn12 [Example 13.21, 4-((5′S,7a′R)-3′-oxo-5′-phenyltetrahydro-3′H-spiro[azetidine-3,2′-pyrrolo[2,1-b]oxazol]-1-yl)pyrazolo[1,5-a]pyridine-7-carbonitrile, TFA salt] |
| < 25 | O=C1N2[C@@H](CC[C@H]2c2cc(F)cc(F)c2)OC12CCN(c1cc(-c3cnn(C(F)F)c3)ncn1)CC2 [Example 10.1, (5′S,7a′R)-1-(6-(1-(difluoromethyl)-1H-pyrazol-4-yl)pyrimidin-4-yl)-5′-(3,5-difluorophenyl) tetrahydro-3′H-spiro[piperidine-4,2′-pyrrolo[2,1-b]oxazol]-3′-one] |
| < 25 | O=C(c1sccc1Cl)N1CCC2(CC1)O[C@@H]1CC[C@@H](c3cc(F)cc(F)c3)N1C2=O [Example 5.31, (5′S,7a′R)-1-(3-chloro-thiophene-2-carbonyl)-5′-(3,5-difluorophenyl)tetra-hydro-3′H-spiro[piperi-dine-4,2′-pyrrolo[2,1-b]oxazol]-3′-one] |
| < 25 | O=C(c1ccoc1)N1CCC2(CC1)O[C@@H]1CC[C@@H](c3ccccc3)N1C2=O [Example 6.145, (5′S,7a′R)-1-(furan-3-carbonyl)-5′-phenyl-tetrahydro-3′H-spiro [piperidine-4,2′-pyrrolo[2,1-b][1,3]oxazol]-3′-one] |
| 33.4 | O=C(c1cc(F)ccc1Cl)N1CCC2(CC1)O[C@@H]1CC[C@@H](c3ccccc3F)N1C2=O [Example 1.15, (5′S,7a′R)-1-(2-chloro-5-fluorobenzoyl)-5′-(2-fluorophenyl)tetrahydro-3′H-spiro[piperidine-4,2′-pyrrolo[2,1-b]oxazol]-3′-one] |
| < 25 | N#Cc1ccc(N2CCC3(CC2)O[C@@H]2CC[C@@H](c4cc(F)cc(F)c4)N2C3=O)n2ncnc12 [Example 14.2, 5-((5′S,7a′R)-5′-(3,5-difluorophenyl)-3′-oxotetrahydro-3′H-spiro[piperidine-4,2′-pyrrolo[2,1-b]oxazol]-1-yl)-[1,2,4]triazolo[1,5-a]pyridine-8-carbonitrile, TFA salt] |
| 66.9 | N#Cc1ccc(N2CCC3(CC2)C[C@@H]2OC[C@@H](c4ccccc4)N2C3=O)c(F)c1 [Example 11.3, 3-fluoro-4-[(3′R,7a′S)-5′-oxo-3′-phenyltetrahydro-1H,5′H-spiro[piperidine-4,6′-pyrrolo[2,1-b][1,3]oxazol]-1-yl]benzonitrile] |
| 58.3 | N#Cc1cc(N2CCC3(O[C@@H]4CC[C@@H](c5ccccc5)N4C3=O)C(F)C2)ncn1 (single isomer, unassigned) [Example 4.95, 6-((3[S or R],4[R or S], 5′S,7a′R)-3-fluoro-3′-oxo-5′-phenyltetrahydro-3′H-spiro[piperidine-4,2′-pyrrolo[2,1-b]oxazol]-1-yl)pyrimidine-4-carbonitrile] |
| < 25 | CC1CN(c2ncnc3ccnn23)CCC12O[C@@H]1CC[C@@H](c3cc(F)cc(F)c3)N1C2=O (stereo partly drawn) [Example 4.267, (5′S,7a′R)-5′-(3,5-difluorophenyl)-3-methyl-1-(pyrazolo[1,5-a] [1,3,5]triazin-4-yl)tetrahydro-3′H-spiro[piperidine-4,2′-pyrrolo[2,1-b] [1,3]oxazol]-3′-one] |
| 165 | N#CC1(NC(=O)c2nc(N3CCC4(CC3)O[C@@H]3CC[C@@H](c5cc(F)cc(F)c5)N3C4=O)ncc2F)CC1 [Example 7.12, N-(1-cyanocyclopropyl)-2-[(5′S,7a′R)-5′-(3,5-difluorophenyl)-3'-oxotetrahydro-1H,3′H-spiro[piperidine-4,2′-pyrrolo[2,1-b][1,3]oxazol]-1-yl]-5-fluoropyrimidine-4-carboxamide] |
| 30.3 | CC(C)(C)OC(=O)/C=C/c1ccc(N2CCC3(CC2)O[C@@H]2CC[C@@H](c4ccccc4)N2C3=O)nc1 [Example 4.163, tert-butyl (2E)-3-{6-[(5′S,7a′R)-3′-oxo-5′-phenyltetrahydro-1H,3′H-spiro[piperidine-4,2′-pyrrolo[2,1-b] [1,3]oxazol]-1-yl]pyridin-3-yl}prop-2-enoate] |
| < 25 | CC1CN(C(=O)c2ccccc2)CCC12O[C@@H]1CC[C@@H](c3cc(F)cc(F)c3)N1C2=O (stereo partly drawn) [Example 6.109, (5′S,7a′R)-1-(benzene-carbonyl)-5′-(3,5-difluorophenyl)-3-methyltetrahydro-3′H-spiro[piperidine-4,2′-pyrrolo[2,1-b][1,3]-oxazol]-3′-one] |
| 29.8 | N#Cc1cnc(N2CCC3(CC2)O[C@@H]2CC[C@@H](c4ccccc4)N2C3=O)c(F)c1 [Example 4.72, 5-fluoro-6-[(5′S,7a′R)-3′-oxo-5′-phenyltetrahydro-1H,3′H-spiro[piperidine-4,2′-pyrrolo[2,1-b] [1,3]oxazol]-1-yl]pyridine-3-carbonitrile] |
| 121 | O=C(c1cccc(F)c1)N1CCC2(CC1)O[C@@H]1CC[C@@H](c3ccc(F)cc3)N1C2=O [Example 7.1, (5′S,7a′R)-1-(3-Fluorobenzoyl)-5′-(4-fluorophenyl)tetrahydro-3′H-spiro[piperidine-4,2′-pyrrolo[2,1-b]oxazol]-3′-one] |
| < 25 | O=C(c1cccc(C2CC2)c1)N1CCC2(CC1)O[C@@H]1CC[C@@H](c3cc(F)cc(F)c3)N1C2=O [Example 5.62, (5′S,7a′R)-1-(3-cyclo-propylbenzoyl)-5′-(3,5-difluorophenyl)tetrahydro-3′H-spiro[piperidine-4,2′-pyrrolo[2,1-b]oxazol]-3′-one] |
| < 25 | COc1nc(N2CCC3(CC2)O[C@@H]2CC[C@@H](c4cc(F)cc(F)c4)N2C3=O)ncc1F [Example 4.21, (5′S,7a′R)-5′-(3,5-difluorophenyl)-1-(5-fluoro-4-methoxypyrimidin-2-yl)tetrahydro-3′H-spiro[piperidine-4,2′-pyrrolo[2,1-b] [1,3]oxazol]-3′-one] |
| 25.4 | COC(=O)c1cnc(N2CCC3(CC2)O[C@@H]2CC[C@@H](c4ccccc4)N2C3=O)nc1C [Example 4.189, methyl 4-methyl-2-[(5′S,7a′R)-3′-oxo-5′-phenyltetrahydro-1H,3′H-spiro[piperidine-4,2′-pyrrolo[2,1-b] [1,3]oxazol]-1-yl]pyrimidine-5-carboxylate] |

| Structure (SMILES) | EC50 [nM] |
| --- | --- |
| N#Cc1cnc(N2CCC3(CC2)O[C@@H]2CC[C@@H](c4cc(F)cc(F)c4)N2C3=O)cc1F [Example 4.75, 6-[(5′S,7a′R)-5′-(3,5-difluorophenyl)-3′-oxotetrahydro-1H,3′H-spiro[piperidine-4,2′-pyrrolo[2,1-b] [1,3]oxazol]-1-yl]-4-fluoropyridine-3-carbonitrile] | < 25 |
